Results taken from PubChem BioAssay AID248 (DTP/NCI, 2004).
Values joined by “and” are separate entries in the source; they are usually repeats but may differ in a detail not shown here. Equal entries are not always repeated. Inconclusive results and toxic doses are left out.

System: L1210 leukemia ip in BDF1 mice, survival T/C
Experiment: NCI In Vivo Anticancer Drug Screen. Data for tumor model L1210 Leukemia (intraperitoneal) in B6D2F1 (BDF1) mice
Details: endpoint: mean survival time, higher = longer survival
Procedure, shortened: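 Value reflects the ratio of survival in compound-treated mice to survival in vehicle-treated controls, with both groups carrying the same transplanted tumor.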

`NC(Cc1c[nH]c2ccc(N(CCCl)CCCl)cc12)C(=O)O` (stereo not given) was tested, and the T/C (dose: 1.87 mg/kg/injection, schedule: Q01DX001 (oral), vehicle: carboxymethylcellulose (CMC)) was 106 % of control, the T/C (dose: 2.0 mg/kg/injection, schedule: Q01DX (oral), vehicle: acid diluted with saline) was 102 % of control and the T/C (dose: 3.5 mg/kg/injection, schedule: Q01DX 1 (oral), vehicle: acid diluted with saline) was 110 % of control and 124 % of control. For the same molecule, the T/C (dose: 3.5 mg/kg/injection, schedule: Q07DX (oral), vehicle: acid diluted with saline) was 114 % of control, the T/C (dose: 3.75 mg/kg/injection, schedule: Q01DX001 (ip), vehicle: carboxymethylcellulose (CMC)) was 192 % of control and the T/C (dose: 3.75 mg/kg/injection, schedule: Q01DX001 (oral), vehicle: carboxymethylcellulose (CMC)) was 108 % of control. For the same molecule, the T/C (dose: 4.0 mg/kg/injection, schedule: Q01DX (oral), vehicle: acid diluted with saline) was 106 % of control, the T/C (dose: 5.0 mg/kg/injection, schedule: Q01DX001 (ip), vehicle: saline) was 295 % of control and the T/C (dose: 7.0 mg/kg/injection, schedule: Q01DX 1 (oral), vehicle: acid diluted with saline) was 110 % of control and 124 % of control. The T/C (dose: 7.0 mg/kg/injection, schedule: Q07DX (oral), vehicle: acid diluted with saline) was 123 % of control, the T/C (dose: 7.0 mg/kg/injection, schedule: Q07DX Z (oral), vehicle: acid diluted with saline) was 116 % of control and the T/C (dose: 7.5 mg/kg/injection, schedule: Q01DX001 (ip), vehicle: carboxymethylcellulose (CMC)) was 264 % of control. For the same molecule, the T/C (dose: 7.5 mg/kg/injection, schedule: Q01DX001 (oral), vehicle: carboxymethylcellulose (CMC)) was 114 % of control, the T/C (dose: 8.0 mg/kg/injection, schedule: Q01DX (oral), vehicle: acid diluted with saline) was 95 % of control and the T/C (dose: 8.0 mg/kg/injection, schedule: Q03DX Z (oral), vehicle: acid diluted with saline) was 119 % of control. The T/C (dose: 10.0 mg/kg/injection, schedule: Q01DX001 (ip), vehicle: saline) was 270 % of control, the T/C (dose: 14.0 mg/kg/injection, schedule: Q01DX 1 (oral), vehicle: acid diluted with saline) was 105 % of control and 115 % of control and the T/C (dose: 14.0 mg/kg/injection, schedule: Q07DX Z (oral), vehicle: acid diluted with saline) was 107 % of control. For the same molecule, the T/C (dose: 15.0 mg/kg/injection, schedule: Q01DX001 (oral), vehicle: carboxymethylcellulose (CMC)) was 119 % of control, the T/C (dose: 16.0 mg/kg/injection, schedule: Q01DX (oral), vehicle: acid diluted with saline) was 95 % of control and the T/C (dose: 16.0 mg/kg/injection, schedule: Q01DX Z (oral), vehicle: acid diluted with saline) was 116 % of control. For the same molecule, the T/C (dose: 20.0 mg/kg/injection, schedule: Q01DX001 (oral), vehicle: saline) was 119 % of control, the T/C (dose: 28.0 mg/kg/injection, schedule: Q01DX 1 (oral), vehicle: acid diluted with saline) was 104 % of control and 118 % of control and the T/C (dose: 28.0 mg/kg/injection, schedule: Q01DX001 (oral), vehicle: acid diluted with saline) was 108 % of control and 118 % of control. The T/C (dose: 28.0 mg/kg/injection, schedule: Q07DX (oral), vehicle: acid diluted with saline) was 120 % of control, the T/C (dose: 40.0 mg/kg/injection, schedule: Q01DX001 (oral), vehicle: saline) was 86 % of control and the T/C (dose: 56.0 mg/kg/injection, schedule: Q01DX 1 (oral), vehicle: acid diluted with saline) was 113 % of control and 121 % of control. For the same molecule, the T/C (dose: 56.0 mg/kg/injection, schedule: Q01DX001 (oral), vehicle: acid diluted with saline) was 117 % of control and 122 % of control, the T/C (dose: 56.0 mg/kg/injection, schedule: Q07DX (oral), vehicle: acid diluted with saline) was 123 % of control and the T/C (dose: 80.0 mg/kg/injection, schedule: Q01DX001 (oral), vehicle: saline) was 102 % of control. The T/C (dose: 112.0 mg/kg/injection, schedule: Q01DX001 (oral), vehicle: acid diluted with saline) was 120 % of control, the T/C (dose: 168.0 mg/kg/injection, schedule: Q01DX001 (oral), vehicle: acid diluted with saline) was 122 % of control and the T/C (dose: 204.0 mg/kg/injection, schedule: Q01DX 1 (oral), vehicle: acid diluted with saline) was 106 % of control. For the same molecule, the T/C (dose: 204.0 mg/kg/injection, schedule: Q01DX001 (oral), vehicle: acid diluted with saline) was 107 % of control, the T/C (dose: 1.0 micrograms/kg/injection, schedule: Q07DX 2 (ip), vehicle: acid diluted with saline) was 101 % of control and the T/C (dose: 5.0 micrograms/kg/injection, schedule: Q07DX 2 (ip), vehicle: acid diluted with saline) was 102 % of control. For the same molecule, the T/C (dose: 16.0 micrograms/kg/injection, schedule: Q07DX 2 (ip), vehicle: acid diluted with saline) was 117 % of control, the T/C (dose: 22.0 micrograms/kg/injection, schedule: Q01DX Z (ip), vehicle: saline) was 104 % of control and the T/C (dose: 33.0 micrograms/kg/injection, schedule: Q01DX Z (ip), vehicle: saline) was 107 % of control. For the same molecule, the T/C (dose: 45.0 micrograms/kg/injection, schedule: Q01DX009 (ip), vehicle: saline) was 109 % of control, the T/C (dose: 50.0 micrograms/kg/injection, schedule: Q01DX Z (ip), vehicle: saline) was 107 % of control and the T/C (dose: 50.0 micrograms/kg/injection, schedule: Q07DX 2 (ip), vehicle: acid diluted with saline) was 123 % of control. The T/C (dose: 75.0 micrograms/kg/injection, schedule: Q01DX Z (ip), vehicle: saline) was 115 % of control, the T/C (dose: 750.0 micrograms/kg/injection, schedule: Q01DX009 (ip), vehicle: saline) was 207 % of control and the T/C (dose: 1500.0 micrograms/kg/injection, schedule: Q01DX009 (ip), vehicle: saline) was 219 % of control.
